For one assay, the system named is H460 carcinoma cells. Nature of the assay: Transwell cell migration (metastatic activity). The format is cell-based, human. To be noted: 100 μM NAC, 16 hours. How it is done: Cell migration assays were performed in Transwells (Corning Inc., 8.0-μm pore size). For migration assay, 2·10^4 cells in serum-free medium were added to the upper wells. Media containing 10% FBS were added to the lower wells. Cells that migrated through the filter after 16 hours were stained with 0.2% crystal violet and counted using the software Image J.
The Transwell test of cell migration has been utilized for this assay and the migration of H460 carcinoma cells has been measured in the presence of two different concentrations of AOX (5 and 10 μM) and compared to the effect of 100 μM N-acetyl cystein (NAC) as a positive control of cytosolic ROS production (FIG. 25).

Another assay has as its system NAD(P)H oxidase. Nature of the assay: Non-mitochondrial ROS/H2O2 production by NAD(P)H oxidase (Amplex Red). The format is biochemical. To be noted: 10 to 100 μM; no mitochondria. As for the experimental part:
Rates of ROS/H2O2 production from heart mitochondria were assessed through the oxidation of the colorless, non-fluorescent indicator Amplex Red in the presence of exogenous horseradish peroxidase (HRP, EC 1.11.1.7, Sigma). H2O2 reacts with Amplex Red in a 1:1 stoichiometry, yielding the fluorescent compound resorufin (excitation: 560 nm; emission: 585 nm) which is stable once formed. Fluorescence was measured continuously with a spectro-fluorometer equipped with temperature control and stirring (SAFAS Xenius, Monaco). Isolated mitochondria (0.1 mg/mL) were incubated in the same experimental buffer than previously, supplemented with 15 μM Amplex Red and 10 μg/mL HRP. Glutamate (5 mM)/malate (2.5 mM) together with succinate (5 mM) were used as complex I and complex II substrates, respectively. Experiments were conducted under non-phosphorylating conditions in the presence of 15 μM atractyloside, i.e., under state IV conditions where […]. Afterwards, rotenone (1.5 μM), antimycin A (2 μM), and myxothiazol (0.2 μM) were sequentially added to inhibit the redox centers within the electron transfer chain (FIG. 2), namely sites IQ, IF (with rotenone), IIIQi (with antimycin A) and IIIQO (with myxothiazol). Assay was finally calibrated with known amounts of H2O2 (steps of 300 nM), in the presence of all relevant compounds, including AOL. The control test of the absence of effect of AOL on the Amplex Red assay itself and NAD(P)H oxidase ROS/H2O2 production was carried out in the absence of cardiac mitochondria and the presence of NAD(P)H oxidase (EC 1.6.3.3, 5 mU/mL, Sigma) and NADH (100 μM) solutions.
The specificity of AOL was further tested in vitro using the peroxidase-Amplex Red system utilized for the measurement of ROS/H2O2 by mitochondria, which in fact measures the appearance of H2O2 by the oxidation of Amplex Red to the fluorescent resorufin (see FIG. 4). In the absence of mitochondria and by adding instead a H2O2-producing system to the measuring system, it was possible to test the effect of AOL on this system. This has been carried out by using commercial NAD(P)H oxidase which produces H2O2 in the presence of added NAD(P)H and measuring the reduction of Amplex Red to resorufin (FIG. 4).
Isolated mitochondria (0.1 mg/mL) were incubated in the same experimental buffer than previously, supplemented with 15 μM Amplex Red and 10 μg/mL HRP. Glutamate (5 mM)/malate (2.5 mM) together with succinate (5 mM) were used as complex I and complex II substrates, respectively. Experiments were conducted under non-phosphorylating conditions in the presence of 15 μM atractyloside. Afterwards, rotenone (1.5 μM), antimycin A (2 μM), and myxothiazol (0.2 μM) were sequentially added to inhibit the redox centers within the electron transfer chain (see FIG. 2), namely sites IQ, IF (with rotenone), IIIQi (with antimycin A) and IIIQO (with myxothiazol). Assay was finally calibrated with known amounts of H2O2 (steps of 300 nM), in the presence of all relevant compounds, including AOX. The control test of the absence of effect of AOL, AOX and Oltipraz on the Amplex Red assay itself and NAD(P)H oxidase […] production was carried out in the absence of cardiac mitochondria and the presence of NAD(P)H oxidase (EC 1.6.3.3, 5 mU/mL, Sigma) and NADH (100 μM) solutions.
The mechanism of action of AOX was further tested in vitro using the peroxidase-Amplex Red system utilized for the measurement of ROS/H2O2 by mitochondria, which in fact measures the appearance of H2O2 by the oxidation of Amplex Red to the fluorescent resorufin (FIG. 22). In the absence of mitochondria and by adding instead a H2O2-producing system to the assay, it was possible to test the effect of AOX on this non-mitochondrial superoxide/H2O2 production. This has been carried out by using commercial NAD(P)H oxidase which produces H2O2 in the presence of added NAD(P)H and measuring the reduction of Amplex Red to resorufin. […]

The next assay has as its system site IQ. The experiment in a line: ROS/H2O2 production, site targeted individually (96-well Amplex Red), 10 mM succinate alone. The format is biochemical, rat. Particulars: 0 to 80 μM; effect at concentrations as low as 2.5 μM. As for the experimental part:
After freshly isolating mitochondria from rat heart, then measuring protein quantity of the mitochondrial suspension, H2O2 production in response to the exogenous addition of increasing concentrations of AOL, AOX and Oltipraz was measured fluorimetrically with Amplex Red and horseradish peroxidase (HRP).
The two major sites of mitochondrial ROS/H2O2 production were targeted individually using the combination of succinate (energy substrate of respiratory complex 2) and known inhibitors of respiratory chain, namely for site IQ, 10 mM succinate alone (CCCP as positive control) and for site IIIQouter, 10 mM succinate, 4 μM rotenone and 2.5 μM antimycin A (myxothiazol as positive control). These “reaction” solutions were designed to generate maximal rates of ROS/H2O2 production predominantly from a single site within the chain (Quinlan et al. 2013. Redox Biol. 1:304-12).
For measurement, a working solution of 50 μM Amplex red reagent and 20 μg/ml HRP was mixed to the reaction buffer into the corresponding wells of a 96-well plate (Greiner 96 F-bottom), in the absence or presence of increasing concentrations (from 0 to 80 μM) of AOL, AOX or Oltipraz. Addition of mitochondria to a final concentration of 0.125 mg/mL per well initiated the assay. The appropriate total volume per microplate well was 200 μL.
Plates were incubated in the dark at room temperature for 20-25 minutes. A double orbital shaking (100 rpm-3 seconds) was applied before reading the endpoint fluorescence values on a CLARIOstar plate reader (BMG LABTECH GmbH, Germany). In fact, H2O2 reacts with Amplex Red in a 1:1 stoichiometry, yielding the fluorescent compound resorufin that was analyzed using the following optic settings (excitation wavelength at 546-20 nm; emission at 600-40 nm; gain: 750).
Also, an H2O2 standard curve, with concentrations ranging from 0 to 5 μM, was prepared in the experimental buffer that consisted in (in mM): 140 sucrose, 100 KCl, 1 EGTA, 20 MgCl2, 10 KH2PO4, and 1 g/L (w/v) BSA essentially fatty acid free (pH 7.2). […]

`CC(=O)N[C@@H](CS)C(=O)O` [NAC, N-acetyl cysteine]: in the assay on H460 carcinoma cells, the “metastatic activity (cells crossing the membrane)” value is recorded as “huge increase in metastatic activity”.

As to `Cc1c(-c2cnccn2)ssc1=S` [Oltipraz], the “effect on ROS measurement with NAD(P)H oxidase” value in the assay with NAD(P)H oxidase is “constantly decreased the amount of ROS measured”. The “inhibition of ROS production in site IQ” value in the assay with site IQ is listed as “only a poor effect”.

For the origin of these results see US11484529B2, “Desmethylanethole trithione derivatives for the treatment of diseases linked to mitochondrial reactive oxygen species (ROS) production” (OP2 Drugs, priority 2017, dated 2022).
